Six compounds from US4548926A, “Hypotensive peptides and their use” (Sankyo Company Limited, priority 1983, dated 1985) can be followed below.

Square brackets hold non-standard residues; d marks the D form. Peptide text beside a SMILES is read from it. * marks the point of attachment. 1Nal = N[C@@H](Cc1cccc2ccccc12)C(=O)O; Npys = O=[N+]([O-])c1cccnc1S*; Leu(ol) = CC(C)C[C@H](N)CO; Cbz = O=C(OCc1ccccc1)*; Mpa = O=C(O)CCS

This experiment concerns the target T1, human renin (Homo sapiens, UniProt P00797).
T1 sequence (P00797 67-406): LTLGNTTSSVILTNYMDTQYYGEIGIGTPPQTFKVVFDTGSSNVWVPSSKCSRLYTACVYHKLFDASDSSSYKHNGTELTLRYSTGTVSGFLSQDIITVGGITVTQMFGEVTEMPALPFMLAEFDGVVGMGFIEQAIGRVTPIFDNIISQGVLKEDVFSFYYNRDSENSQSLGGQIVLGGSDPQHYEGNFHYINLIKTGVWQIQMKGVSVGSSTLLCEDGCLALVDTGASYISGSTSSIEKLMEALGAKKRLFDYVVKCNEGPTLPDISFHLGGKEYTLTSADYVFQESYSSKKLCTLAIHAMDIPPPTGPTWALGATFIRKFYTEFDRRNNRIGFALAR
In words: Inhibition of renin activity (human renin with sheep angiotensinogen, assay of angiotensin I). The class given is biochemical. To be noted: test compound 5 × 10^-5 mole/liter, phosphate buffer pH 7.3, 10 minutes at 37° C., mean of 3 or 4 experiments. How it is done:
The ability of various compounds of the invention to inhibit the activity of renin was determined according to the following method.
Specifically, each test compound was dissolved in 60% v/v aqueous ethanol. Human renin activity in the presence and absence of each compound was measured using sheep angiotensinogen. The total volume of 1 ml of assay mixture contained 0.1 mole/liter phosphate buffer (pH 7.3), human renin (equivalent to 0.5 ng angiotensin I per ml per minute), sheep angiotensinogen (equivalent to 200 ng angiotensin I), the indicated concentration of the test compound, 6% ethanol and angiotensinase inhibitors (10 mmole/liter sodium ethylenediaminetetraacetate and 3.4 mmole/liter 8-hydroxyquinoline). The mixture was allowed to react for 10 minutes at 37° C., and then the reaction was stopped by placing the reaction tube in a boiling water bath for 5 minutes. The mixture was then centrifuged and the supernatant (0.05-0.1 ml) was used to assay remaining angiotensin I.
An identical experiment was carried out, as a control, except that the test compound was omitted. From the values obtained were calculated the % inhibition of renin activity achieved by each test compound. The results are shown in the following Table, in which the compounds of the invention are identified by the numbers assigned to them in the foregoing list. The values given are the mean of 3 or 4 experiments.
As to `CC(C)C[C@@H](C=O)NC(=O)[C@H](Cc1c[nH]cn1)NC(=O)[C@H](Cc1ccccc1)NC(=O)CCCc1ccccc1` [Compound 1, N-(4-phenylbutyryl)-L-phenylalanyl-L-histidyl-L-leucinal], the % Inhibition (as a rule, the percentage by which the read-out fell short of the control) was found to be 53%.
The value for `CC(C)C[C@@H](C=O)NC(=O)[C@H](Cc1c[nH]cn1)NC(=O)[C@H](Cc1ccccc1)NC(=O)CCSSc1ncccc1[N+](=O)[O-]` [Compound 2, N-[3-(3-nitro-2-pyridyldithio)propionyl]-L-phenylalanyl-L-histidyl-L-leucinal] ([Mpa](Npys)FHL-aldehyde) was 70%.
In the case of `CC(C)C[C@@H](C=O)NC(=O)[C@H](Cc1c[nH]cn1)NC(=O)[C@H](Cc1cccc2ccccc12)NC(=O)OCc1ccccc1` [Compound 3, N-benzyloxycarbonyl-3-(1-naphthyl)-L-alanyl-L-histidyl-L-leucinal] (Cbz-[1Nal]-His-Leu-aldehyde), the “% Inhibition” value was 54%.
The value for `CC(C)C[C@@H](CO)NC(=O)[C@H](Cc1c[nH]cn1)NC(=O)[C@H](Cc1ccccc1)NC(=O)OCc1ccccc1` [Compound 10, N-benzyloxycarbonyl-L-phenylalanyl-L-histidyl-L-leucinol] (Cbz-Phe-His-[Leu(ol)]) was 58%.
Consider `CC(C)C[C@@H](CO)NC(=O)[C@H](Cc1c[nH]cn1)NC(=O)[C@H](Cc1ccccc1)NC(=O)CCSSc1ncccc1[N+](=O)[O-]` [Compound 11, N-[3-(3-nitro-2-pyridyldithio)propionyl]-L-phenylalanyl-L-histidyl-L-leucinol] ([Mpa](Npys)FH[Leu(ol)]), for which the “% Inhibition” value is given as 70%.
With `CC(C)C[C@@H](CO)NC(=O)[C@H](Cc1c[nH]cn1)NC(=O)[C@H](Cc1cccc2ccccc12)NC(=O)OCc1ccccc1` [Compound 14, N-benzyloxycarbonyl-3-(1-naphthyl)-L-alanyl-L-histidyl-L-leucinol] (Cbz-[1Nal]-His-[Leu(ol)]) the figure was 71%.
